Data published in patent publication US20220125807A1, “PHARMACEUTICAL COMBINATION OF WNT SIGNALING AND MACC1 INHIBITORS” (Max-Delbrück-Centrum für Molekulare Medizin in der …, priority 2019, published 2022).

Experiments:
MACC1 [1] = experiment: MACC1 mRNA expression by qRT-PCR in statin-treated HCT116 cells; format: cell-based, human; details: 1-10 μM statin, 24 h, relative to DMSO treated control
Experimental: (§1) HCT116 cells were treated with increasing amounts (1-10 μM) of different, clinically relevant statins dissolved in DMSO. Following 24 h of treatment cells were harvested for RNA and protein isolation. MACC1 mRNA expression was analyzed by qRT-PCR and is expressed relative to DMSO treated control samples. Protein amounts were analyzed by western blot.
(§2) HCT116, SW620 and SW480 colorectal carcinoma cells were purchased from ATCC. HCT116 cells were stably transduced with GFP/ MACC1-GFP plasmids to produce MACC1 overexpressing cell lines and SW620 cells were stably transduced by sh-control/sh-MACC1 plasmids to produce MACC1 knockdown cell lines. SW480 stable MACC1 overexpressing cell lines were created using pCDNA3.1 MACC1 plasmids and the control cells were produced using pCDNA3.1 empty plasmids followed clone selection using Gentamycin (Gibco). Knock-out of MACC1 in SW620 cells was achieved by CRISPR-Cas9 based gene editing followed by Puromycin (Gibco) based selection and subsequently the clones were picked using single cell sorting. Cells were cultured in RPMI supplemented with 10% FCS in 5% CO2 humidified atmosphere and sub passaged 2-3 times a week to maintain cultures subconfluent. Drugs were solubilized in DMSO, stock concentrations were 2 mM for niclosamide (Sigma-Aldrich, St Louis, Mo., USA), 2 mM for GSK1120212 (trametinib, Selleck Chemicals, Munich, Germany) and selumetinib (AZD6244, Selleck Chemicals, Munich, Germany) and 10 mM for statins (atorvastatin, lovastatin, fluvastatin, TCI Deutschland GmbH, Eschborn, Germany). All drugs were pre-diluted to 1000× final concentration in DMSO. Control cells were treated with equal amounts of DMSO.
RNA was isolated using the Gene Matrix Universal RNA Purification Kit (EURx, Poland) according to the manufacturer's instructions. RNA was quantified and 50 ng of RNA was reverse transcribed using a reaction mix containing MuLV reverse transcriptase, 10 mM MgCl2, 1× PCR-Buffer, 250 μM pooled dNTPs, 1U RNAse inhibitor and random hexamers (all from Applied Biosystems). The reaction was performed at 42° C. for 15 min, 99° C. for 5 min and subsequent cooling at 4° C. for 5 min. The cDNA was amplified using SYBR Green chemistry (Promega) using the LightCycler 480 II system (Roche Diagnostics) at the following PCR conditions: 95° C. for 2 min followed by 45 cycles of 95° C. for 7 s, 60° C. for 10 s and 72° C. for 20 s. The primers used for quantification are as follows: MACC1 Fwd 5′-[…]-3′ and Rev 5′-[…]-3′; S100A4 Fwd 5′-[…]-3′ and Rev 5′- […]-3′. Data analysis was performed with LightCycler 480 Software release 1.5.0 SP3 (Roche Diagnostics). Mean values was calculated from RT-qPCR duplicates. Each mean value of the expressed gene was normalized to the respective RP-II cDNA. […]

MACC1 [2] = experiment: MACC1 protein by western blot in statin-treated HCT116 cells; format: cell-based, human; details: 1-10 μM statin, 24 h
Experimental: as §1, §2
Whole cell protein extraction was performed on 5×10^5 HCT116 and SW620 cells. Cells were lysed using RIPA buffer (50 mM Tris-HCT pH 7.5, 150 mM NaCl, 1% Nonidet P-40) supplemented with cOmplete Protease inhibitor (Roche) for 30 min at 4° C. The lysate was clarified and the protein content was measured using the BCA Kit (Pierce). 20 μg protein lysate were denatured with LDS-containing NuPage Loading buffer (invitrogen) and DTT for 10 min.
Proteins were then resolved in 10% SDS-PAGE followed by protein transfer onto PVDF membranes (BioRAD). The membrane was blocked with 5% w/v skim milk powder and 1% w/v BSA in TBST (10 mM Tris-HCL pH 8, 150 mM NaCl and 0.1% Tween 20) for 60 min. The membrane was incubated overnight with the respective primary antibodies (anti-MACC1, #HPA020081, Sigma Aldrich; S100A4, #5114, Dako and β-Actin, #31430, Invitrogen; Lamin B1, #12586s, Cell Signalling). The membranes were washed and further incubated with corresponding horseradish peroxidase-tagged secondary antibodies (anti-mouse IgG HRP-conjugated, #31430, Invitrogen and anti-rabbit IgG HRP-conjugated, #W4018, Promega) for 60 min. […]

HCT116 cells = experiment: Wound healing (scratch) assay, IncuCyte, with Loewe synergy calculation; format: cell-based, human; details: HCT116, three concentrations (statin 5/2.5/1.25 μM, niclosamide 1/0.5/0.25 μM), 48 h, vs DMSO
Experimental: For wound healing assays the HCT116 human colon cancer cell line was used. HCT116 cells are endogenously positive for MACC1 and S100A4 expression at the mRNA and protein level. In addition, they show decreased motility when either marker is inhibited. For wound healing (scratch) experiments cells were passaged to a density of 6×10^5 per ml and cultured for 48 h. Cells were then harvested and counted. For wound healing assays 1.2×10^5 cells were seeded in 100 μl RPMI supplemented with 10% FCS in 96 well Image Lock Plates (Essen Bioscience, Hertfordshire, UK). Cells were allowed to adhere for 6 hours. Wounds in the monolayer were applied using the IncuCyte WoundMaker (Essen Bioscience). After applying the wounds 100 μl of 2-fold concentrated drug solutions were added. DMSO treated and untreated samples served as controls. For each drug three different (niclosamide 1 μM, 0.5 μM and 0.25 μM, each statin 5 μM, 2.5 μM and 1.25 μM, MEK1 inhibitors 1 μM, 0.1 μM and 0.01 μM) concentrations and combinations thereof were applied, each in triplicate. Of all statins, we tested lovastatin, fluvastatin and atorvastatin. Wound closure was monitored every second hour in the IncuCyte system (Essen Bioscience). A pre-established image collection of HCT116 was used to teach the software detection of cells and wound. Wound confluency was expressed relative to DMSO treated controls. Synergy was analyzed using combenefit 2.021. DMSO treated samples were set to 100%. To calculate synergy, we used the Loewe isobole equation model. For the calculations dose-response curves for three single concentrations and the nine combinations thereof were used. The Loewe model was applied since there is a certain degree of target interaction already shown: first, active Wnt-signaling is important for MACC1 driving tumor progression and invasiveness (Lemos C, Clin Cancer Res, 2016) and second, S100A4 is a Wnt-signaling target gene and is found in the MACC1 induced secretome. The three single concentrations and nine combinations thereof were expressed relative to the control.

HCT116-CMVp-Luc cells = experiment: Xenograft mouse model of liver metastasis, intrasplenic transplantation, bioluminescence imaging; format: in vivo, SCID-beige mice; details: daily p.o., alone or combined, vs solvent; for Metastasis formation to the liver (luminescence), reduced dose: statin 1.5 mg/kg, niclosamide 164 mg/kg; for Metastasis formation to the liver (luminescence), maximum human dose equivalent: statin 13 mg/kg, niclosamide 328 mg/kg
Experimental: Severe combined immunodeficiency (SCID)-beige mice (n=10 per group) were intrasplenically transplanted with HCT116-CMVp-Luc cells and treated daily with solvent, 13 mg/kg atorvastatin or fluvastatin (p.o.), 328 mg/kg niclosamide (p.o.) or the combination of niclosamide with one of the statins, at the indicated doses. These doses correspond to the maximum human doses established for the statins and niclosamide. Metastasis to the liver was analyzed with bioluminescence imaging after an intraperitoneal application of 150 mg/kg D-Luciferin at the experimental endpoint. Following whole animal imaging livers were removed and analyzed as isolated organs.
Severe combined immunodeficiency (SCID)-beige mice (n=10 per group) were intrasplenically transplanted with HCT116-CMVp-Luc cells and treated daily with solvent, 1.5 mg/kg atorvastatin or fluvastatin (p.o.), 164 mg/kg niclosamide (p.o.) or the combination of niclosamide with one of the statins, at the indicated doses. These doses therefore correspond to 12.5% of the maximum human dose for the statins and 50% of the maximum human dose for niclosamide. Metastasis to the liver was analyzed with bioluminescence imaging after an intraperitoneal application of 150 mg/kg D-Luciferin at the experimental endpoint. Following whole animal imaging livers were removed and analyzed as isolated organs.
All experiments were performed in accordance with the United Kingdom Coordinated Committee on Cancer Research (UKCCCR) guidelines and approved by the responsible local authorities (State Office of Health and Social Affairs, Berlin, Germany). For in vivo drug testing a xenograft mouse model was used as described earlier (Stein 2009 Nat Med, Sack 2011 J Natl Cancer Inst,
Juneja & Kobelt 2017 Plos Biol). In brief, HCT116-CMVp-LUC cells (5×10^5 cells per mouse, resuspended in 50 μL PBS) were intrasplenically transplanted into 6-week-old female SCID beige (SCID bg/bg) mice. The animals were assigned randomly into treatment groups.
Drugs were administered as a suspension using a gavage tube. Both niclosamide (either 328 mg/kg or 164 mg/kg) and a statin (atorvastatin or fluvastatin, at 13 mg/kg or 1.5 mg/kg) were administered daily, orally. Control mice were treated with the appropriate volume of solvent solution. The in vivo experimentation and luminescence imaging were conducted as described below.
For luminescence imaging, mice were anesthetized with 5% Isoflurane and received intraperitoneally 150 mg/kg D-luciferin (Biosynth, Staad, Switzerland) dissolved in sterile PBS. Anesthesia was maintained with 2% isoflurane. Imaging was performed with the NightOWL LB 981 system (Berthold Technologies, Bad Wildbad, Germany). ImageJ version 1.48v (NIH, Bethesda, Md.) was used for color coding of signal intensity (presenting a 256 grayscale) and overlay pictures.

Question: `CC(C)n1c(/C=C/[C@H](O)C[C@H](O)CC(=O)O)c(-c2ccc(F)cc2)c2ccccc21` (racemic) [fluvastatin] was tested. Which “MACC1 mRNA expression” value (MACC1 [1]) did it give?
Answer: shown to reduce

Question: And the MACC1 protein (MACC1 [2])?
Answer: shown to reduce

Question: What about the “Wound closure (cellular motility), single agents” value (shortened to “Wound closure (cellular motility)”) (HCT116 cells) of the same compound?
Answer: dose dependent reduction of wound closure ability

Question: And the “Metastasis formation to the liver (luminescence), reduced dose” value (“Metastasis formation … reduced dose” for short) (HCT116-CMVp-Luc cells)?
Answer: no reduction in metastasis formation

Question: And the “Metastasis formation to the liver (luminescence), maximum human dose equivalent” value (HCT116-CMVp-Luc cells)?
Answer: significantly reduced

Question: Which “MACC1 mRNA expression” value (MACC1 [1]) does the source give for `O=C(O)C[C@H](O)C[C@H](O)/C=C/c1c(C2CC2)nc2ccccc2c1-c1ccc(F)cc1` [Pitavastatin] here?
Answer: shown to reduce

Question: And the MACC1 protein (MACC1 [2])?
Answer: shown to reduce

Question: How did the “MACC1 mRNA expression” value (MACC1 [1]) turn out when `CC(C)c1c(C(=O)Nc2ccccc2)c(-c2ccccc2)c(-c2ccc(F)cc2)n1CC[C@@H](O)C[C@@H](O)CC(=O)O` [atorvastatin] was run?
Answer: shown to reduce

Question: And the MACC1 protein (MACC1 [2])?
Answer: shown to reduce

Question: And the “Wound closure (cellular motility)” value (HCT116 cells)?
Answer: dose dependent reduction of wound closure ability

Question: What about the “Metastasis formation … reduced dose” value (HCT116-CMVp-Luc cells) of the same compound?
Answer: no reduction in metastasis formation

Question: And the “Metastasis formation to the liver (luminescence), maximum human dose equivalent” value (HCT116-CMVp-Luc cells)?
Answer: significantly reduced

Question: Which “MACC1 mRNA expression” value (MACC1 [1]) does the source give for `CC[C@H](C)C(=O)O[C@H]1C[C@@H](C)C=C2C=C[C@H](C)[C@H](CC[C@@H]3C[C@@H](O)CC(=O)O3)[C@H]21` [lovastatin] here?
Answer: shown to reduce

Question: And the MACC1 protein (MACC1 [2])?
Answer: shown to reduce

Question: And the “Wound closure (cellular motility)” value (HCT116 cells)?
Answer: dose dependent reduction of wound closure ability

Question: For `O=C(Nc1ccc([N+](=O)[O-])cc1Cl)c1cc(Cl)ccc1O` [niclosamide, 5-Chloro-N-(2-chloro-4-nitrophenyl)-2-hydroxybenzamide], which “Wound closure (cellular motility)” value (HCT116 cells) is on record?
Answer: dose dependent reduction of wound closure ability

Question: And the “Metastasis formation … reduced dose” value (HCT116-CMVp-Luc cells)?
Answer: no reduction in metastasis formation

Question: What about the “Metastasis formation to the liver (luminescence), maximum human dose equivalent” value (HCT116-CMVp-Luc cells) of the same compound?
Answer: significantly reduced
